These are literature values, as cited in publication PMC12697872, “Rethinking the AI Paradigm for Solubility Prediction of Drug‑Like Compounds with Dual‐Perspective Modeling and Experimental Validation” (Advanced Science, 2025).

The conditions of one data set: discarded ambiguous entries of DrugBank database; ref DrugBank database (version 5.1.12) 24; cited from earlier work.
Turning to `Cc1ncc(COP(=O)(O)O)c(C=O)c1O` [54-47-7], the “Experimental solubility (descriptive)” value is on record as “Appreciable”.

Take `Oc1ccc2c(c1)[C@@]13CCCC[C@@]1(O)[C@@H](C2)N(CC1CCC1)CC3` [42408-82-2]: the “Experimental solubility (descriptive)” value is reported as “Moderate”.

For `CCC(NC(C)C)C(O)c1ccc(O)c(O)c1` (centres unmarked) [79490-84-9], the “Experimental solubility (descriptive)” value was “Appreciable”. Regarding `O=C(O)c1ccc2nc(-c3cc(Cl)cc(Cl)c3)oc2c1` [594839-88-0], the Experimental solubility was >50 mg/mL. As to `CN(CCN1CCC(OC(=O)Nc2ccccc2-c2ccccc2)CC1)C(=O)c1ccc(CN2CCC(C(N)=O)CC2)cc1` [864750-70-9], the Experimental solubility is given as < 1 mg/ml mg/mL.

The data set is the same for the next values; noted with them: experimental aqueous solubility as logS, sheet "DrugBank" of Supplement 2; ref DrugBank; cited from earlier work.
As to `O=C(O)c1ccc(O)cc1O` [2,4-Dihydroxybenzoic Acid], the ex_logS is recorded as -1.426. As for `CC(=O)Oc1ccccc1C(=O)O` [Acetylsalicylic acid], the ex_logS is recorded as -1.6122. On to `C=CCc1ccccc1OCC(O)CNC(C)C` (centres unmarked) [Alprenolol], for which the ex_logS is on record as -2.659.

Regarding `NCC[C@H](O)C(=O)N[C@@H]1C[C@H](N)[C@@H](O[C@H]2O[C@H](CN)[C@@H](O)[C@H](O)[C@H]2O)[C@H](O)[C@H]1O[C@H]1O[C@H](CO)[C@@H](O)[C@H](N)[C@H]1O` [Amikacin], the ex_logS is given as -1.069. With `CCC1(CCC(C)C)C(=O)NC(=O)NC1=O` [Amobarbital], the ex_logS is on record as -2.574.

Take `C[C@]12CCC(=O)C=C1CC[C@@H]1[C@@H]2CC[C@]2(C)C(=O)CC[C@@H]12` [Androstenedione]: the ex_logS is -3.695. On to `COc1ccc(C2C(=O)c3ccccc3C2=O)cc1` [Anisindione], for which the ex_logS was -3.5. As for `COc1ccc(CCN2CCC(Nc3nc4ccccc4n3Cc3ccc(F)cc3)CC2)cc1` [Astemizole], the ex_logS is reported as -3.026. For the compound `NS(=O)(=O)c1cc2c(cc1Cl)N=C(CSCc1ccccc1)NS2(=O)=O` [Benzthiazide], the ex_logS is reported as -4.686. Turning to `C[C@H]1C[C@H]2[C@@H]3CCC4=CC(=O)C=C[C@]4(C)[C@@]3(F)[C@@H](O)C[C@]2(C)[C@@]1(O)C(=O)CO` [Betamethasone], the ex_logS is on record as -3.771. On to `CC(O)(CS(=O)(=O)c1ccc(F)cc1)C(=O)Nc1ccc(C#N)c(C(F)(F)F)c1` (centres unmarked) [Bicalutamide], for which the ex_logS is -4.935. For `CCCCC1(CC)C(=O)NC(=O)NC1=O` [Butobarbital], the ex_logS was -1.638. With `CC1(C)S[C@@H]2[C@H](NC(=O)C(C(=O)O)c3ccccc3)C(=O)N2[C@H]1C(=O)O` (some centres unmarked) [Carbenicillin], the ex_logS is -2.924.

The same data set, now with this note: experimental aqueous solubility as logS, sheet "DrugBank"; ref DrugBank database; cited from earlier work.
On to `CCCCC(C)(O)C/C=C/[C@H]1[C@H](O)CC(=O)[C@@H]1CCCCCCC(=O)OC` (mixture of isomers) [Misoprostol], for which the ex_logS is listed as -2.379.

As to `c1cnc2c(c1)ccc1cccnc12` [1,10-Phenanthroline], the ex_logS is reported as -1.826. On to `Cc1ccnc2c1ccc1c(C)ccnc12` [4,7-Dimethyl-[1,10]Phenanthroline], for which the ex_logS is -3.968. `O=C(O)[C@H](O)c1ccccc1` [(R)-Mandelic acid]: the ex_logS is on record as -0.1409. For `O=C(O)[C@@H](O)c1ccccc1` [(S)-Mandelic acid], the ex_logS is listed as 0.07541. As for `Nc1ncnc2c1ncn2[C@@H]1O[C@H](COP(=O)(O)OP(=O)(O)OP(=O)(O)O)[C@@H](O)[C@H]1O` [ATP], the ex_logS is reported as 0.2948. Regarding `CCCC(=O)Nc1ccc(OCC(O)CNC(C)C)c(C(C)=O)c1` (centres unmarked) [Acebutolol], the ex_logS is listed as -3.114. As for `COc1cc(C)c(/C=C/C(C)=C/C=C/C(C)=C/C(=O)O)c(C)c1C` [Acitretin], the ex_logS is recorded as -6.651. As for `Nc1nc2c(ncn2COCCO)c(=O)[nH]1` [Acyclovir], the ex_logS is on record as -2.203.

Consider `Nc1ncnc2[nH]cnc12` [Adenine], for which the ex_logS is recorded as -2.1179. Regarding `CC1=C(/C=C/C(C)=C\C=C\C(C)=C\C(=O)O)C(C)(C)CCC1` [Alitretinoin], the ex_logS was -5.6996. In the case of `CCCCC[C@H](O)/C=C/[C@H]1[C@H](O)CC(=O)[C@@H]1CCCCCCC(=O)O` [Alprostadil], the ex_logS is -4.123.

Consider `CC1(C)S[C@@H]2[C@H](/N=C/N3CCCCCC3)C(=O)N2[C@H]1C(=O)O` [Amdinocillin], for which the ex_logS is reported as -4.5. Turning to `NCCCNCCSP(=O)(O)O` [Amifostine], the ex_logS is listed as 0.6691. Regarding `Cn1c(=O)c2[nH]cnc2n(C)c1=O` [Aminophylline], the ex_logS is given as -0.3227.

Turning to `Nc1ccc(C(=O)O)c(O)c1` [Aminosalicylic acid], the ex_logS is recorded as -1.957. As for `CC(C)(C#N)c1cc(Cn2cncn2)cc(C(C)(C)C#N)c1` [Anastrozole], the ex_logS is recorded as -2.743. As for `COc1ccc(-n2nc(C(N)=O)c3c2C(=O)N(c2ccc(N4CCCCC4=O)cc2)CC3)cc1` [Apixaban], the ex_logS is -3.621. In the case of `NC[C@H](CC(=O)O)c1ccc(Cl)cc1` [Arbaclofen], the ex_logS was -2.01. Consider `NC(=O)C[C@H](N)C(=O)O` [Asparagine], for which the ex_logS is reported as -0.6526. Regarding `NCC(CC(=O)O)c1ccc(Cl)cc1` (centres unmarked) [Baclofen], the ex_logS is listed as -1.672. Consider `COC(=O)OCOc1c2n(ccc1=O)N([C@@H]1c3ccccc3SCc3c1ccc(F)c3F)[C@@H]1COCCN1C2=O` [Baloxavir marboxil], for which the ex_logS is recorded as -4.581.

With `O=C(/C=C/c1cccc(S(=O)(=O)Nc2ccccc2)c1)NO` [Belinostat], the ex_logS was -3.357.

Consider `CCOC(=O)[C@H](CCc1ccccc1)N[C@H]1CCc2ccccc2N(CC(=O)O)C1=O` [Benazepril], for which the ex_logS is -1.349. As to `NS(=O)(=O)c1cc2c(cc1C(F)(F)F)NC(Cc1ccccc1)NS2(=O)=O` (centres unmarked) [Bendroflumethiazide], the ex_logS is -3.591. With `OCc1ccccc1` [Benzyl alcohol], the ex_logS is listed as -0.5155.

In the case of `CC1=C(/C=C/C(C)=C/C=C/C(C)=C/C=C/C=C(C)/C=C/C=C(C)/C=C/C2=C(C)CCCC2(C)C)C(C)(C)CCC1` [Beta carotene], the ex_logS is given as -5.952. For the compound `CCC(=O)O[C@]1(c2ccccc2)CCN(C)C[C@H]1CC` [Betameprodine], the ex_logS is given as -5.285. As for `O=C(O)CCCC[C@@H]1SC[C@@H]2NC(=O)N[C@@H]21` [Biotin], the ex_logS is recorded as -3.046. In the case of `Oc1c(Cl)cc(Cl)cc1Sc1cc(Cl)cc(Cl)c1O` [Bithionol], the ex_logS was -4.949.

Turning to `CCOc1ccc(Nc2ccc(/C(=C3C=C/C(=[N+](/CC)Cc4cccc(S(=O)(=O)[O-])c4)C=C/3C)c3ccc(N(CC)Cc4cccc(S(=O)(=O)O)c4)cc3C)cc2)cc1` [Brilliant blue G], the ex_logS was -2.931. For `CCCCN1CCCCC1C(=O)Nc1c(C)cccc1C` (centres unmarked) [Bupivacaine], the ex_logS is given as -3.22. As to `C=CCC1(CC(C)C)C(=O)NC(=O)NC1=O` [Butalbital], the ex_logS is -2.1203.

For `CCCCOC(=O)c1ccc(N)cc1` [Butamben], the ex_logS is given as -3.14. `CC12CCC(CC1=O)C2(C)C` (centres unmarked) [Camphor]: the ex_logS is given as -1.978. As to `C[C@@](Cc1ccc(O)c(O)c1)(NN)C(=O)O` [Carbidopa], the ex_logS is recorded as -4.775.

In the case of `N[C@@H](CSCC(=O)O)C(=O)O` [Carbocisteine], the ex_logS was -2.0492.

For `C[C@H](N)[C@@H](O)c1ccccc1` [Cathine], the ex_logS was -0.8785.
